According to paper PMC11240139, “Exploring the antitumor potential of novel quinoline derivatives via tubulin polymerization inhibition in breast cancer; design, synthesis and molecular docking” (RSC Advances, 2024):

Tests used:
[1] = tested on: M14 (melanoma); test: NCI-60 SRB cytotoxicity screen; assay type: cell-based; conditions: Homo sapiens; M14, single dose 10 μM; read-out: growth inhibition (GI%)
[2] = tested on: SN12C (renal cancer); test: NCI-60 SRB cytotoxicity screen; assay type: cell-based; conditions: Homo sapiens, single dose 10 μM, read-out: growth inhibition (GI%)
[3] = tested on: SF-295 (CNS cancer); test: NCI-60 SRB cytotoxicity screen; assay type: cell-based; conditions: Homo sapiens; SF-295, single dose 10 μM; read-out: growth inhibition (GI%)
[4] = tested on: HS 578T (breast cancer); test: NCI-60 SRB cytotoxicity screen; assay type: cell-based; conditions: Homo sapiens, single dose 10 μM, read-out: growth inhibition (GI%)
[5] = tested on: DU-145 (prostate cancer); test: NCI-60 SRB cytotoxicity screen; assay type: cell-based; conditions: Homo sapiens; DU-145, single dose 10 μM; read-out: growth inhibition (GI%)
[6] = tested on: MDA-MB-435 (melanoma); test: NCI-60 SRB cytotoxicity screen; assay type: cell-based; conditions: Homo sapiens, MDA-MB-435, read-out: growth inhibition (GI%);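 further: growth inhibition in percent at a single 10 µM dose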
[7] = tested on: RPMI-8226 (leukemia); test: NCI-60 SRB cytotoxicity screen; assay type: cell-based; conditions: Homo sapiens; RPMI-8226, single dose 10 μM; read-out: growth inhibition (GI%)
[8] = tested on: NCI-H460 (non-small cell lung cancer); test: NCI-60 SRB cytotoxicity screen; assay type: cell-based; conditions: Homo sapiens; NCI-H460, single dose 10 μM; read-out: growth inhibition (GI%)
[9] = tested on: CCRF-CEM (leukemia); test: NCI-60 SRB cytotoxicity screen; assay type: cell-based; conditions: Homo sapiens, single dose 10 μM, read-out: growth inhibition (GI%)
[10] = tested on: HT29 (colon cancer); test: NCI-60 SRB cytotoxicity screen; assay type: cell-based; conditions: Homo sapiens, HT-29; HT29, single dose 10 μM; read-out: growth inhibition (GI%)
[11] = tested on: HOP-92 (non-small cell lung cancer); test: NCI-60 SRB cytotoxicity screen; assay type: cell-based; conditions: Homo sapiens; HOP-92, single dose 10 μM; read-out: growth inhibition (GI%)
[12] = tested on: OVCAR-4 (ovarian cancer); test: NCI-60 SRB cytotoxicity screen; assay type: cell-based; conditions: Homo sapiens; OVCAR-4, single dose 10 μM; read-out: growth inhibition (GI%)
[13] = tested on: NCI-H226 (non-small cell lung cancer); test: NCI-60 SRB cytotoxicity screen; assay type: cell-based; conditions: Homo sapiens; NCI-H226, single dose 10 μM; read-out: growth inhibition (GI%)
[14] = tested on: T-47D (breast cancer); test: NCI-60 SRB cytotoxicity screen; assay type: cell-based; conditions: Homo sapiens, T47D, single dose 10 μM, read-out: growth inhibition (GI%)
[15] = tested on: LOX IMVI (melanoma); test: NCI-60 SRB cytotoxicity screen; assay type: cell-based; conditions: Homo sapiens, single dose 10 μM, read-out: growth inhibition (GI%)
[16] = tested on: KM12 (colon cancer); test: NCI-60 SRB cytotoxicity screen; assay type: cell-based; conditions: Homo sapiens; KM12, single dose 10 μM; read-out: growth inhibition (GI%)
[17] = tested on: MDA-MB-231/ATCC (breast cancer); test: NCI-60 SRB cytotoxicity screen; assay type: cell-based; conditions: Homo sapiens, MDA-MB-231, read-out: growth inhibition (GI%);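 further: growth inhibition in percent at a single 10 µM dose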
[18] = tested on: IGROV1 (ovarian cancer); test: NCI-60 SRB cytotoxicity screen; assay type: cell-based; conditions: Homo sapiens, IGROV-1; IGROV1, single dose 10 μM; read-out: growth inhibition (GI%)
[19] = tested on: UACC-257 (melanoma); test: NCI-60 SRB cytotoxicity screen; assay type: cell-based; conditions: Homo sapiens; UACC-257, single dose 10 μM; read-out: growth inhibition (GI%)
[20] = tested on: A498 (renal cancer); test: NCI-60 SRB cytotoxicity screen; assay type: cell-based; conditions: Homo sapiens; A498, single dose 10 μM; read-out: growth inhibition (GI%)
[21] = tested on: SK-MEL-5 (melanoma); test: NCI-60 SRB cytotoxicity screen; assay type: cell-based; conditions: Homo sapiens; SK-MEL-5, single dose 10 μM; read-out: growth inhibition (GI%)
[22] = tested on: UO-31 (renal cancer); test: NCI-60 SRB cytotoxicity screen; assay type: cell-based; conditions: Homo sapiens; UO-31, single dose 10 μM; read-out: growth inhibition (GI%)
[23] = tested on: OVCAR-8 (ovarian cancer); test: NCI-60 SRB cytotoxicity screen; assay type: cell-based; conditions: Homo sapiens; OVCAR-8, single dose 10 μM; read-out: growth inhibition (GI%)
[24] = tested on: MDA-MB-468 (breast cancer); test: NCI-60 SRB cytotoxicity screen; assay type: cell-based; conditions: Homo sapiens; MDA-MB-468, single dose 10 μM; read-out: growth inhibition (GI%)
Method: The cytotoxic activity of the synthesized quinoline derivatives was determined by the national cancer institute (NCI, Bethesda, Maryland, USA) against 60 different cancer cell lines at a single high dose (10^−5 M) in the full NCI 60 cell panel using the sulforhodamine B assay for cell viability evaluation. In summary, 5 × 10^3 cells were in 96-well plate and incubated in complete media for 24 h. Cells were treated with 100 μL of media containing each newly synthesized compound. After drug exposure, cells were fixed by replacing media with 150 μL of 10% TCA and incubated at 4 °C for 1 h. The TCA solution was removed, and the cells were washed 5 times with distilled water. Aliquots of 70 μL SRB solution (0.4% w/v) were added and incubated in a dark place at room temperature for 10 min. The plates were washed 3 times with 1% acetic acid and allowed to air-dry overnight. Then, 150 μL of TRIS (10 mM) was added to dissolve protein-bound SRB stain. The absorbance was measured at 540 nm.% Cytotoxicity = [1 − (AVx/AVNC)] × 100where AVx denotes the average absorbance of the sample well and AVNC denotes the average absorbance of the negative control.
The methodology of the NCI anticancer screening has been described in details at (http://www.dtp.nci.nih.gov). The anticancer assay was performed in full NCI 60 cell lines derived from nine tumor subpanels, including leukemia, lung, colon, CNS, melanoma, ovarian, renal, prostate, and breast cancer cell lines.
The cell lines were first cultured for 48 h, after being exposed to a single dosage of the compound. Using the protein-binding dye sulforhodamine B dye, cell proliferation and viability were evaluated (SRB assay). The results were presented for each chemical as GI%. Compound that met NCI criteria for substantial activity were further evaluated using a five-dose experiment. The NCI60 cell lines were treated with the chemicals in this assay at five different concentration levels (0.01, 0.1, 1, 10, and 100 μM).

[25] = tested on: HOP-62 (non-small cell lung cancer); test: NCI-60 SRB cytotoxicity screen; assay type: cell-based; conditions: Homo sapiens; HOP-62, single dose 10 μM; read-out: growth inhibition (GI%)
[26] = tested on: SR (leukemia); test: NCI-60 SRB cytotoxicity screen; assay type: cell-based; conditions: single dose 10 μM, read-out: growth inhibition (GI%)

Compound | inhibition at 10 µM [1] | melting point | inhibition at 10 µM [2] | inhibition at 10 µM [3] | inhibition at 10 µM [4] | inhibition at 10 µM [6] | inhibition at 10 µM [7] | inhibition at 10 µM [8] | inhibition at 10 µM [9] | inhibition at 10 µM [11] | inhibition at 10 µM [12] | inhibition at 10 µM [13] | inhibition at 10 µM [14] | inhibition at 10 µM [15] | inhibition at 10 µM [16] | inhibition at 10 µM [17] | inhibition at 10 µM [18] | inhibition at 10 µM [19] | inhibition at 10 µM [21] | inhibition at 10 µM [22] | other results
CCc1cccc2cc(C3C=C(c4cc(OC)c(OC)c(OC)c4)NC(=S)N3)c(Cl)nc12 (centres unmarked) [Compound 6c, 4-(2-Chloro-8-ethylquinolin-3-yl)-6-(3,4,5-trimethoxyphenyl)-3,4-dihydropyrimidine-2(1H)-thione] | 30.1% | 235 to 237 °C | 21.7% | 30% | 39.6% | 43.5% | 57.6% | 30% | 32.9% | 28.3% | 48.9% | 58% | 48.6% | 33.3% | 28.1% | 46.1% | 14.3% | 13.1% | 38.2% | 67.7% | inhibition at 10 µM [5]: 21.7%; inhibition at 10 µM [10]: 36.4%; inhibition at 10 µM [20]: 11.6%; inhibition at 10 µM [23]: 12.2%; inhibition at 10 µM [24]: 40.5%; inhibition at 10 µM [25]: 10.5%
CCc1cccc2cc(-c3cc(-c4ccc(OC)c(OC)c4)[nH]c(=S)c3C#N)c(Cl)nc12 [Compound 5b, 4-(2-Chloro-8-ethylquinolin-3-yl)-6-(3,4-dimethoxyphenyl)-2-thioxo-1,2-dihydropyridine-3-carbonitrile] | < 10% | 280 to 282 °C | 21.7% | 16.5% | 23.1% | < 10% | 29.2% | < 10% | 28.8% | 47.4% | 22.4% | 20.3% | 41.1% | < 10% | 19.9% | 19.1% | < 10% | < 10% | 21% | 23.3% | inhibition at 10 µM [5]: 20.2%; inhibition at 10 µM [26]: < 10%; inhibition at 10 µM [23]: 31.5%; inhibition at 10 µM [24]: 22.8%; inhibition at 10 µM [25]: < 10%
CCc1cccc2cc(C=CC(=O)c3ccc(Br)cc3)c(Cl)nc12 [Compound 3e, 1-(4-Bromophenyl)-3-(2-chloro-8-ethylquinolin-3-yl)prop-2-en-1-one] | < 10% | 210 to 212 °C | < 10% | < 10% | < 10% | < 10% | < 10% | < 10% | < 10% | < 10% | < 10% | < 10% | < 10% | < 10% | < 10% | < 10% | < 10% | < 10% | < 10% | < 10% | inhibition at 10 µM [5]: < 10%; inhibition at 10 µM [10]: < 10%; inhibition at 10 µM [20]: < 10%; inhibition at 10 µM [23]: < 10%; inhibition at 10 µM [24]: < 10%; inhibition at 10 µM [25]: < 10%
CCc1cccc2cc(-c3cc(-c4ccc(F)cc4)[nH]c(=S)c3C#N)c(Cl)nc12 [Compound 5d, 4-(2-Chloro-8-ethylquinolin-3-yl)-6-(4-fluorophenyl)-2-thioxo-1,2-dihydropyridine-3-carbonitrile] | < 10% | 235 to 237 °C | < 10% | 12.3% | 18.2% | < 10% | 23% | < 10% | < 10% | 11.4% | 13.3% | 25.9% | 21.1% | 12.4% | < 10% | 31.2% | 28.6% | < 10% | 15.3% | 40.1% | inhibition at 10 µM [10]: < 10%; inhibition at 10 µM [20]: < 10%; inhibition at 10 µM [23]: < 10%; inhibition at 10 µM [24]: 14%; inhibition at 10 µM [25]: < 10%
CCc1cccc2cc(C3C=C(c4ccc(OC)c(OC)c4)NC(=S)N3)c(Cl)nc12 (centres unmarked) [Compound 6b, 4-(2-Chloro-8-ethylquinolin-3-yl)-6-(3,4-dimethoxyphenyl)-3,4-dihydropyrimidine-2(1H)-thione] | < 10% | 237 to 239 °C | < 10% | < 10% | 12.9% | < 10% | 36.1% | < 10% | 11% | < 10% | 19.9% | 15.4% | 24.9% | < 10% | < 10% | < 10% | < 10% | < 10% | 14.1% | 37.2% | inhibition at 10 µM [5]: < 10%; inhibition at 10 µM [10]: < 10%; inhibition at 10 µM [20]: < 10%; inhibition at 10 µM [23]: < 10%; inhibition at 10 µM [24]: 13.2%; inhibition at 10 µM [25]: 11%
